Source: EP4032530B1, “PROLONGED-RELEASE FURAZIDIN COMPOSITION” (Adamed Pharma S.A., priority 2021, dated 2022)

How the values were obtained:
Escherichia coli = conditions: constant level, unchanged for several decades; cited from earlier work
[1] = upon oral administration; cited from earlier work
[2] = Phase I pivotal food effect pharmacokinetic study FUR-PK-03-19 (755/19); assay type: in vivo, human; conditions: PK phase I studies
Experimental: Study title: Randomized, open-label, three-period, cross-over, food effect pharmacokinetic study comparing bioavailability of furazidin, prolonged-release tablets, 200 mg having a composition of IR/1+MR/1 according to Example 1 in healthy subjects in different fed conditions.
Aim of the study: The main study objective was to evaluate the pharmacokinetic properties and to compare the bioavailability of the Test product in healthy volunteers under different fed conditions.
Study conduct: In this bioavailability study, the pharmacokinetic profile was tested for the Test formulation (prolonged-release bilayer tablet, IR/1+MR/1) having a strength of 200 mg furazidin. The bioavailability study was carried out under different fed conditions (after a high-protein meal or after a high-fat, high-calorie meal) and in fasting state in 30 healthy subjects. On the day of dosing, the subjects received randomly after an overnight fast a single dose of the modified-release formulation, administered on empty stomach (fasting conditions, Treatment A) or after a high-protein meal (Treatment B) or after a high-fat, high-calorie meal (Treatment C), each time with 240 mL of water. For each subject, there were 3 dosing periods, separated by a washout period of 7 days. […]
The pharmacokinetic data for plasma and urine were statistically analysed in 29 subjects. […]

O=C1CN(/N=C/C=C/c2ccc([N+](=O)[O-])o2)C(=O)N1 [furazidin]
susceptibility of Escherichia coli to furazidin (Escherichia coli): approx. 90%
half-life [1]: below 1 hour
site of absorption [2]: mainly absorbed in the upper part of the small intestine
